Results taken from patent publication US20230138310A1 (priority 2020, published 2023).
“And” between values parts separate entries of the source, which are not always exact repeats. Identical values can stand only once. Like-named read-outs stand apart in the source and are kept apart here.

Key:
[1] = target: T1, 3CL protease of 2019 Novel Coronavirus (2019-nCoV 3CLpro) (Severe acute respiratory syndrome coronavirus 2, UniProt P0DTD1); assay: FRET inhibitory activity against 3CL protease of 2019 Novel Coronavirus; format: biochemical; settings: for inhibition at 1 µM: read-out: Inhibition rate (1 μM), 3CL protease of 2019 Novel Coronavirus
T1 construct: the 3CL protease of 2019 Novel Coronavirus (2019-nCoV 3CL^pro)

[2] = system: 2019-nCov; assay: Inhibitory activity against the replication of 2019-nCov (cytopathic effect, MTS); format: cell-based; settings: for EC50: Severe acute respiratory syndrome coronavirus 2, gradient concentrations, CQ as positive control, read-out: EC50 against 2019-nCoV virus replication; for anti-virus activity against 2019-nCoV (in words): viral level, compared with positive control CQ
[3] = Half-toxic concentration (CC50) with CCK8 kit; format: cell-based; settings: African green monkey, Vero E6 cells, in duplicate
Method: In this example, the half-toxic concentrations (CC50) of some compounds of the present invention to Vero E6 cells were determined with CCK8 kit in duplicate.

[4] = system: 2019-nCov; settings: positive control, stated as existing value; read-out: EC50 of existing positive compound CQ against 2019-nCoV virus replication; cited from earlier work
[5] = FRET, tables 1A/1B, read-out: IC50 (nM) of SARS-CoV-2 3 CL protease
[6] = read-out: IC50 against 2019-nCoV 3CL protease

Compound	IC50 [1, 5] [nM]	inhibition at 1 µM ([1]; compound at 1 μM) [%]	IC50 [1, 6]	inhibition at 1 µM [1] [%]	further results
CC(C)[C@H](NC(=O)c1cc2ccccc2o1)C(=O)N[C@@H](CC1CCCCC1)C(=O)N[C@H](C=O)C[C@@H]1CCNC1=O [Compound 17, N-{(S)-3-methyl-1-carbonyl-1-{{(S)-1-carbonyl-1-{{(S)-1-carbonyl-3-[(S)-2-carbonylpyrrolidin-3-yl]propan-2-yl}amino}-3-cyclohexylpropan-2-yl}amino}butan-2-yl}benzofuran-2-carboxamide]	61 ± 12.5	106	< 100 nM	–	–
O=C[C@H](C[C@@H]1CCNC1=O)NC(=O)[C@H](CC1CCCCC1)NC(=O)c1cnc2ccccc2n1 [Compound 59]	–	–	–	86.7	–
CC(C)[C@H](NC(=O)c1cc2ccccc2o1)C(=O)N[C@@H](Cc1ccccc1)C(=O)N[C@H](C=O)C[C@@H]1CCNC1=O [Compound 10, N-{(S)-3-methyl-1-carbonyl-1-{{(S)-1-carbonyl-1-{{(S)-1-carbonyl-3-[(S)-2-carbonylpyrrolidin-3-yl]propan-2-yl}amino}-3-phenylpropan-2-yl}amino}butan-2-yl}benzofuran-2-carboxamide]	67.5 ± 13.9	88.2	< 100 nM	–	–
O=C[C@H](C[C@@H]1CCNC1=O)NC(=O)[C@H](Cc1ccc(F)c(F)c1)NC(=O)c1cc2ccccc2[nH]1 [Compound 12]	87 ± 8	103	< 100 nM	–	–
O=C[C@H](C[C@@H]1CCNC1=O)NC(=O)[C@H](Cc1ccccc1)NC(=O)c1cc2ccc(F)cc2[nH]1 [Compound 46]	–	–	–	89.3	–
O=C[C@H](C[C@@H]1CCNC1=O)NC(=O)[C@H](Cc1ccc(F)cc1)NC(=O)c1cc2ccccc2[nH]1 [Compound 82]	103 ± 13	101	–	–	–
Cc1cc(C(=O)N[C@H](C(=O)N[C@@H](CC2CCCCC2)C(=O)N[C@H](C=O)C[C@@H]2CCNC2=O)C(C)C)no1 [Compound 6, 5-Methyl-N-{(S)-3-methyl-1-carbonyl-1-{{(S)-1-carbonyl-1-{{(S)-1-carbonyl-3-[(S)-2-carbonylpyrrolidin-3-yl]propan-2-yl}amino}-3-cyclohexylpropan-2-yl}amino}butan-2-yl}isoxazole-3-carboxamide]	48.5 ± 3.17	95.8	< 100 nM	–	–
Cc1cc2ccccc2nc1C(=O)N[C@H](C(=O)N[C@@H](CC1CCCCC1)C(=O)N[C@H](C=O)C[C@@H]1CCNC1=O)C(C)C [Compound 19, 3-Methyl-N-{(S)-3-methyl-1-carbonyl-1-{{(S)-1-carbonyl-1-{{(S)-1-carbonyl-3-[(S)-2-carbonylpyrrolidin-3-yl]propan-2-yl}amino}-3-cyclohexylpropan-2-yl}amino}butan-2-yl}quinoline-2-carboxamide]	62.7 ± 8.97	98.3	< 100 nM	–	–
CC(C)[C@H](NC(=O)c1cc2ccccc2[nH]1)C(=O)N[C@@H](Cc1ccccc1)C(=O)N[C@H](C=O)C[C@@H]1CCNC1=O [Compound 9, N-{(S)-3-methyl-1-carbonyl-1-{{(S)-1-carbonyl-1-{{(S)-1-carbonyl-3-[(S)-2-carbonylpyrrolidin-3-yl]propan-2-yl}amino}-3-phenylpropan-2-yl}amino}butan-2-yl}indole-2-carboxamide]	68.1 ± 12.5	95.8	< 100 nM	–	–
O=C[C@H](C[C@@H]1CCNC1=O)NC(=O)[C@H](Cc1cccc(F)c1)NC(=O)c1cc2ccccc2[nH]1 [Compound 81]	–	–	< 100 nM	–	EC50 [2]: 330 ± 90 nM; anti-virus activity against 2019-nCoV (in words) [2]: better than that of the positive control CQ; anti-virus activity against 2019-nCoV (in words) ([2]; listed as 2259): excellent anti-virus activity; CC50 [3]: > 100000 nM
O=C[C@H](C[C@@H]1CCNC1=O)NC(=O)[C@H](Cc1ccccc1)NC(=O)c1cc2cc(F)ccc2[nH]1 [Compound 45]	–	–	–	85.2	–
CCN(CC)CCCC(C)Nc1ccnc2cc(Cl)ccc12 (stereo not shown) [CQ]	–	–	–	–	EC50 [4]: 1130 nM
CC(C)[C@H](NC(=O)c1ccc2ccccc2n1)C(=O)N[C@@H](Cc1ccccc1)C(=O)N[C@H](C=O)C[C@@H]1CCNC1=O [Compound 11, N-{(S)-3-methyl-1-carbonyl-1-{{(S)-1-carbonyl-1-{{(S)-1-carbonyl-3-[(S)-2-carbonylpyrrolidin-3-yl]propan-2-yl}amino}-3-phenylpropan-2-yl}amino}butan-2-yl}quinoline-2-carboxamide]	179 ± 29.4	89.7	–	–	–
CC(C)[C@H](NC(=O)c1cc2cccc(Br)c2o1)C(=O)N[C@@H](CC1CCCCC1)C(=O)N[C@H](C=O)C[C@@H]1CCNC1=O [Compound 18, 7-Bromo-N-{(S)-3-methyl-1-carbonyl-1-{{(S)-1-carbonyl-1-{{(S)-1-carbonyl-3-[(S)-2-carbonylpyrrolidin-3-yl]propan-2-yl}amino}-3-cyclohexylpropan-2-yl}amino}butan-2-yl}benzofuran-2-carboxamide]	238 ± 18.7	97.8	–	–	–
CC(C)[C@H](NC(=O)c1cc2cc(Cl)ccc2o1)C(=O)N[C@@H](CC1CCCCC1)C(=O)N[C@H](C=O)C[C@@H]1CCNC1=O [Compound 20, 5-Chloro-N-{(S)-3-methyl-1-carbonyl-1-{{(S)-1-carbonyl-1-{{(S)-1-carbonyl-3-[(S)-2-carbonylpyrrolidin-3-yl]propan-2-yl}amino}-3-cyclohexylpropan-2-yl}amino}butan-2-yl}benzofuran-2-carboxamide]	150 ± 9.55	101	–	–	–
Cn1c(C(=O)N[C@@H](CC2CCCCC2)C(=O)N[C@H](C=O)C[C@@H]2CCNC2=O)cc2ccccc21 [Compound 49]	–	–	–	91.2	–
O=C[C@H](C[C@@H]1CCNC1=O)NC(=O)[C@H](CC1CCCCC1)NC(=O)c1cc2c(F)cccc2[nH]1 [Compound 51]	–	–	–	84.6	–
CC(C)[C@H](NC(=O)c1cc2ccccc2[nH]1)C(=O)N[C@@H](CC1CCCCC1)C(=O)N[C@H](C=O)C[C@@H]1CCNC1=O [Compound 5, N-{(S)-3-methyl-1-carbonyl-1-{{(S)-1-carbonyl-1-{{(S)-1-carbonyl-3-[(S)-2-carbonylpyrrolidin-3-yl]propan-2-yl}amino}-3-cyclohexylpropan-2-yl}amino}butan-2-yl}indole-2-carboxamide]	33.6 ± 3.45	95.7	< 100 nM	–	–
O=C[C@H](C[C@@H]1CCNC1=O)NC(=O)[C@H](CC1CCCCC1)NC(=O)c1nc2ccccc2[nH]1 [Compound 57]	–	–	–	92.3	–
O=C[C@H](C[C@@H]1CCNC1=O)NC(=O)[C@H](CC1CCCCC1)NC(=O)c1cc2ccccc2[nH]1 [Compound 48]	–	–	–	–	EC50 [2]: 290 nM; anti-virus activity against 2019-nCoV (in words) [2]: better than that of the positive control CQ; anti-virus activity against 2019-nCoV (in words) ([2]; listed as 2234): excellent anti-virus activity; CC50 [3]: > 100000 nM
CC(C)[C@H](NC(=O)c1cc2ccccc2[nH]1)C(=O)N[C@@H](CC1CCC(F)C(F)C1)C(=O)N[C@H](C=O)C[C@@H]1CCNC1=O (stereo partly shown) [Compound 35]	–	–	–	94.3	–
CC(C)[C@H](NC(=O)c1cc2ccccc2s1)C(=O)N[C@@H](CC1CCCCC1)C(=O)N[C@H](C=O)C[C@@H]1CCNC1=O [Compound 24]	132 ± 14.7	93.3	–	–	–
CC(C)[C@H](NC(=O)c1ccc2ccccc2n1)C(=O)N[C@@H](CC1CCCCC1)C(=O)N[C@H](C=O)C[C@@H]1CCNC1=O [Compound 16, N-{(S)-3-methyl-1-carbonyl-1-{{(S)-1-carbonyl-1-{{(S)-1-carbonyl-3-[(S)-2-carbonylpyrrolidin-3-yl]propan-2-yl}amino}-3-cyclohexylpropan-2-yl}amino}butan-2-yl}quinoline-2-carboxamide]	74	89.1	< 100 nM and 73.5 nM	–	anti-virus activity against 2019-nCoV (in words) [2]: excellent anti-virus activity; CC50 [3]: > 100000 nM
O=C[C@H](C[C@@H]1CCNC1=O)NC(=O)[C@H](CC1CCCCC1)NC(=O)c1cc2ccccc2s1 [Compound 56]	–	–	–	81.3	–
COc1ccc2[nH]c(C(=O)N[C@@H](CC3CCCCC3)C(=O)N[C@H](C=O)C[C@@H]3CCNC3=O)cc2c1 [Compound 50]	–	–	–	89.1	–
O=C[C@H](C[C@@H]1CCNC1=O)NC(=O)[C@H](CC1CCCCC1)NC(=O)c1cc2c(Cl)cc(Cl)cc2[nH]1 [Compound 47]	–	–	–	90.4	–
O=C[C@H](C[C@@H]1CCNC1=O)NC(=O)[C@H](Cc1cccc(F)c1)NC(=O)c1cc2c(F)ccc(F)c2[nH]1 [Compound 83, 4,7-Difluoron-{(S)-1-carbonyl-1-{{(S)-1-carbonyl-3-[(S)-2-carbonylpyrrolidin-3-yl]propan-2-yl}amino}-3-3fluorophenylpropan-2-yl}-1H-indole-2-carboxamide]	113 ± 9	97.8	–	–	–
